Test results from US20040191842A1, “Chemopreventive and therapeutic aspects of polyphenolic compositions and assays” (Medical College of Georgia Research Institute, Inc., priority 2002, published 2004).

Tests used:
[1] = test system: p57; assay: Western blot of p57 in mammary epithelial cells; assay type: cell-based, human; conditions: EGCG 15 to 200 μM, 24 h
Procedure: Western blot analysis. The keratinocytes and the mammary epithelial cells were placed in KGM-2 and MEGM, respectively, overnight prior to treatment. Cells were lysed, after 24-hour treatment, in RIPA buffer (1% NP-40, 1% sodium deoxycholate, 0.1% SDS, 0.15 M NaCl, 0.01 M sodium phosphate, pH 7.2, and 1% Trasylol) containing proteinase inhibitors (1 mM PMSF, 1 μg/ml each of aprotinin, leupeptin, and pepstatin). The concentration of protein in each sample was determined using the BioRad DC Protein Assay and spectrophotometry. 50 μg of protein from each sample and a BioRad molecular weight standard marker were run on a 10% SDS-PAGE, followed by transfer to nitrocellulose membranes. Nonspecific binding to the membranes was blocked with 10% nonfat milk. Primary polyclonal (rabbit) antibodies and a horseradish peroxidase-conjugated goat anti-rabbit secondary antibody were used in conjunction with the ECL Chemiluminescence Kit (Amersham Pharmacia Biotech, New Jersey) and membranes were exposed to radiographic films for detection. Western blots were digitized for comparison of the intensity for each band using the ImageTool image analysis software program (University of Texas Health Science Center, San Antonio, Tex.). The integrated density of each band was measured using identical 1480 pixel areas of each Apfa-1 or Actin band at a scale of densities from 0 to 255. […]

[2] = test system: OSC-4 cells; assay: Intracellular ROS levels (DFDA assay), OSC-4 cells; assay type: cell-based, human; conditions: for intracellular ROS levels vs control: 120 minute time point
Procedure: (§1) Measurement of intracellular ROS levels. The ROS assay measures the accumulation of intracellular ROS levels. The non-fluorescent dye DFDA passively diffuses into cells, where the acetates are cleaved by intracellular esterases. […] Thus, values of the fluorescence in the cell cultures are constantly rising in this assay. Cells (1.5×10^4 cells/well) were incubated with Hallam's physiological saline (HPS) containing DFDA (10 μM) in a 96-well microplate for 30 minutes at 37° C. After the incubation, cells were washed three times with HPS and then incubated with HPS containing EGCG (15-200 μM) or diamide (5 mM) for the indicated time periods. The intracellular ROS levels were measured by using a fluorescence plate reader (BIO-TEK FL600, Bio-Tek Instruments, Inc., Winooski, Vt.), at an excitation wavelength of 485 nm and an emission wavelength of 530 nm.
as §1, with “assay (DFDA assay)” for “assay”, “dye dichlorofluorescein diacetate (DFDA)” for “dye DFDA”, “this assay due to the accumulation of ROS.” for “this assay.”, “EGCG (50-200” for “EGCG (15-200”, “indicated times.” for “indicated time periods.”

[3] = test system: catalase; assay: Catalase activity assay in cell lysates; assay type: cell-based, human
Procedure: Assays for SOD and catalase activities. Cells (1×10^6 cells/well) were incubated with or without EGCG (50 μM) in FilterCap 50 ml flasks (Nagel Nunc International, Rochester, N.Y.) for 30 minutes at 37° C. After the incubation, cells were harvested and disrupted in 100 μl of 10 mM Tris-HCl (pH 7.4) containing 0.1%(v/v) Triton X-100, 10 μg/ml leupeptin, 10 μg/ml pepstatin A and 100 mM phenylmethylsulfonyl fluoride by three cycles of freezing/thawing. After centrifugation at 17,000×g for 20 minutes at 4° C., the supernatants were used for SOD and catalase assays using the SOD Assay Kit-WST (Dojindo Molecular Technologies, Inc., Gaithersburg, Md.) and the AMPLEX Red Catalase Assay Kit (Molecular Probes), respectively. The activities of SOD and catalase were calibrated using a standard curve prepared with purified human SOD and catalase. The activities of SOD and catalase were expressed as units (U)/10^6 cells.
Assays for SOD and catalase activities. Cells (10^5 cells/well) were incubated with or without EGCG (50 μM) in 24-well culture plates for desirable time periods at 37° C. After the incubation, cells were harvested and disrupted in 100 μl of 10 mM Tris-HCl (pH 7.4) containing 0.1% (v/v) Triton ×-100, 10 μg/ml leupeptin, 10 μg/ml pepstatin A and 100 mM PMSF by three cycles of freezing/thawing. After centrifugation at 17,000×g for 20 minutes at 4° C., the supernatants were used for SOD and catalase assays using the SOD Assay Kit-WST (Molecular Technologies, Inc., Gaithersburg, Md.) and the Amplex Red Catalase Assay Kit (Molecular Probes), respectively. The activities of SOD and catalase were calibrated using a standard curve prepared with purified human SOD and catalase. The activities of SOD and catalase were expressed as units (U)/10^6 cells.

[4] = daily topical 30 mg/ml EGCG for 30 days; cited from earlier work
[5] = test system: OSC-4 cells; assay: MTT assay (SDH activity), OSC-4 cells; assay type: cell-based, human; conditions: 24 hours
Procedure: MTT [3-(4,5-dimethylthiazol-2-yl)-2,5-diphenyl tetrazolium bromide] assay. This method directly detects the activity of mitochondrial succinate dehydrogenase (SDH). Changes in SDH activity is a measurement of cell viability when stress is introduced in cell culture through chemical or physical means. Cells (1.5×10^4 cells/well) were seeded in a 96-well microplate and treated with the indicated doses of EGCG for 24 hours. After the treatment, the cells in each well were washed with 200 μl of phosphate-buffered saline (PBS), incubated with 100 μl of 2% MTT in a solution of 0.05 M Tris, 0.5 mM MgCl2, 2.5 mM CoCl2, and 0.25 M disodiumn succinate as substrate (Sigma) at 37° C. for 30 minutes. Cells were fixed in situ by the addition of 100 μl of 4% formalin in 0.2 M Tris (pH 7.7), and after a 5 minute incubation at room temperature liquid was removed and the wells were allowed to dry. Each well was rinsed with 200 μl water and cells were solubilized by the addition of 100 μl of 6.35% 0.1 N NaOH in DMSO. The colored formazan product was measured by a Thermo MAX micro plate reader (Molecular Devices Corp., Sunnyvale, Calif.) at a wavelength of 562 nm. Experiments were repeated three times with triplicate samples for each experiment.

[6] = test system: p21; assay: Immunoblot of p21 protein in NHEK; assay type: cell-based, human; conditions: EGCG 100 μM or higher, beyond 24 hours
Procedure: To identify additional factors those suppress EGCG -induced apoptosis and facilitate cell differentiation in NHEK, exponentially growing NHEK (Cambrex, Baltimore, Md.) were exposed to 100 μM EGCG for 0, 2, 6 and 24 hours, prior to total RNA isolation using the Qiagen RNeasy mini kit (Valencia, Calif.), which was followed by RT-PCR labeling and hybridization with the Human Apoptosis Macroarray membrane (Sigma-Genosys, The Woodlands, Tex.). Total cell lysates also were collected following a variety of EGCG treatments. The protein levels for caspase 14 and p21 were determined by immuno-blotting using antibodies specific for caspase 14 and p21 (Santa Cruz Biotechnology, Santa Cruz, Calif.).

O=C(O[C@@H]1Cc2c(O)cc(O)cc2O[C@@H]1c1cc(O)c(O)c(O)c1)c1cc(O)c(O)c(O)c1 [EGCG, (−)-epigallocatechin-3-gallate]
p57 levels [1]: no significant changes | intracellular ROS levels vs controls ([2]; 50 μM EGCG, 60 minute exposure): remained comparable to the controls | intracellular ROS levels vs control ([2]; 50 μM EGCG): ROS levels identical to the control cells | intracellular ROS levels vs control ([2]; 200 μM EGCG): remained higher than the control cells | time at which rate of ROS production peaked ([2]; EGCG): 60 min | H2O2 concentration producing ROS equivalent to 200 μM EGCG ([2]; first hour): 100 µM | catalase activity ([3]; 50 μM EGCG, 30 minutes, NHEK, OSC-2, OSC-4): Significant changes in catalase activity was not observed | catalase activity in OSC-4 cells ([3]; EGCG, 24-hour treatment period): slight decrease | catalase and total SOD enzymatic activity levels ([3]; EGCG, 24-hour treatment period, NHEK, OSC-2, OSC-4): had no effect on the enzymatic activity levels | dermal toxicity [4]: failed to induce dermal toxicity | mitochondrial SDH activity ([5]; 50 μM EGCG): did not show significant changes | SDH activity, of untreated control ([5]; 200 μM EGCG): less than 75% | mitochondrial SDH activity ([5]; 200 μM EGCG): significantly reduced SDH activity and DNA synthesis | p21 protein level, of controls [6]: below 50%
